Source: patent US20060079512A1, “Dibenzodiazepinone analogues, processes for their production and their use as pharmaceuticals” (Ecopia BioSciences, Inc., priority 2003, published 2006)

What was measured:
Format in all cases: cell-based
SF268 (CNS) [1] = assay: In vitro cytotoxic activity (GI50), method (a), propidium iodide; conditions: read-out: SF-268 (GI50 μM)
Description: (§1) Compounds were dissolved at 10 mM in DMSO. Dilution in vehicle to concentrations of 30, 10, 3, 1 and 0.3 μM were prepared immediately before assays. Depending on the cell line's growth characteristics, 4000-10000 cells were plated in two 96-wells pates (day 0) and incubated for 16 hours. The following day, propidium iodide was added to one of the two plates and fluorescence measured (Tz). Test compounds were added to the second plate, as well as vehicle control, and cells further incubated for 96 hours. Each compound was tested at each concentration and in triplicates. The equivalent cell number was determined after adding propidium iodide by measuring the signal by fluorescence (C for control).

[2] = test system: PC-3 (prostate adenocarcinoma); assay: as above; conditions: read-out: PC-3 (GI50 μM)
Description: as §1

[3] = test system: HT-29 (colorectal carcinoma); assay: as above; conditions: read-out: HT-29 (GI50 μM)
Description: as §1

[4] = test system: MDA-MB-231 (mammary gland adenocarcinoma); assay: as above; conditions: read-out: MDA-MB-231 (GI50 μM)
Description: as §1

[5] = test system: HT-29, SF-268, PC-3, MDA-MB-231; assay: Average GI50 over the four cell lines, method (a); conditions: for anticancer activity compared with Compound 1: four cell lines; for GI50: read-out: Average (GI50 μM)
Description: as §1

SF268 (CNS) [6] = assay: In vitro cytotoxic activity (GI50), method (b), propidium iodide; conditions: Homo sapiens, SF-268, 96 hrs
Description: (§2) Row H was filled wih medium only (150 μL, negative control-medium).

[7] = test system: PC-3 (prostate adenocarcinoma); assay: as above; conditions: 96 hrs
Description: as §2

[8] = test system: HT-29 (colorectal carcinoma); assay: as above; conditions: Homo sapiens, 96 hrs
Description: as §2

[9] = test system: MDA-MB-231 (mammary gland adenocarcinoma); assay: as above; conditions: Homo sapiens, 96 hrs
Description: as §2

[10] = test system: HT-29, SF-268, PC-3, MDA-MB-231; assay: Average GI50 over the four cell lines, method (b); conditions: for anticancer activity compared with Compound 1: four cell lines; for GI50: values > 30 not considered
Description: as §2

[11] = Homo sapiens, SF-268, method (a), 96 hours
[12] = Homo sapiens, HT-29, method (a), 96 hours
[13] = Homo sapiens, MDA-MB-231, method (a), 96 hours
[14] = method (a), values > 30 not considered

Row | Compound | GI50 ([2]; method (a), 96 hours) [µM] | GI50 [5, 14] [µM] | GI50 (SF268 (CNS) [6]) [µM] | GI50 [7] [µM] | GI50 [8] [µM] | GI50 [9] [µM] | GI50 [10] [µM] | other results
1 | CC(C)CCCC(C)CCCC(C)CCN1C(=O)c2cccc(O)c2Nc2c(O)cc(O)cc21 (stereo not shown) [Compound 46, 10-(3,7,11-trimethyldodecyl)-4,6,8-trihydroxy-5,10-dihydro-dibenzo[b,e][1,4]diazepin-11-one] | 0.9 | 1.62 |  |  |  |  |  | GI50 (SF268 (CNS) [1]; [11]): 0.72 µM; GI50 [3, 12]: 4.26 µM; GI50 [4, 13]: 0.59 µM; anticancer activity compared with Compound 1 ([5]; method (a)): generally more active than Compound 1
2 | CC(=O)Oc1cc(OC(C)=O)c2c(c1)N(CC=C(C)CCC=C(C)CCC=C(C)C)C(=O)c1cccc(O)c1N2 [Compound 9, 6,8-diacetoxy-10-farnesyl-4-hydroxy-5,10-dihydro-dibenzo[b,e][1,4]diazepin-11-one] |  |  |  |  |  |  |  | GI50 (SF268 (CNS) [1]; Homo sapiens, SF-268, 96 h): 1.88 µM; GI50 ([2]; 96 h): 1.44 µM; GI50 ([3]; Homo sapiens, HT-29, 96 h): 12.6 µM; GI50 ([4]; Homo sapiens, MDA-MB-231, 96 h): 2.48 µM; GI50 [5]: 4.6 µM
3 | COc1cc(OC)c2c(c1)N(C/C=C(\C)CC/C=C(\C)CCC=C(C)C)C(=O)c1cccc(O)c1N2 [Compound 6, 10-farnesyl-4-hydroxy-6,8-dimethoxy-5,10-dihydro-dibenzo[b,e][1,4]diazepin-11-one] | 19 | 20.8 |  |  |  |  |  | GI50 (SF268 (CNS) [1]; [11]): 18.9 µM; GI50 [3, 12]: > 30 µM; GI50 [4, 13]: 24.6 µM
4 | CCN1c2c(O)cccc2C(=O)N(CC=C(C)CCCC(C)(CCCC(C)(C)OC)OC)c2cc(O)cc(O)c21 (stereo not shown) [Compound 87, 10-(7,11-dimethoxy-3,7,11-trimethyl-2-dodecenyl)-4,6,8-trihydroxy-5-ethyl-5,10-dihydro-dibenzo[b,e][1,4]diazepin-11-one] |  |  | 0.91 | 1.39 | 1.83 | 2.4 | 1.63 | anticancer activity compared with Compound 1 [10]: better anticancer activity than Compound 1
5 | COc1cc(O)cc2c1Nc1c(O)cccc1C(=O)N2C/C=C(\C)CC/C=C(\C)CCC=C(C)C [Compound 5, 10-farnesyl-4,8-dihydroxy-6-methoxy-5,10-dihydro-dibenzo[b,e][1,4]diazepin-11-one] | 15.6 | 16 |  |  |  |  |  | GI50 (SF268 (CNS) [1]; [11]): 13.4 µM; GI50 [3, 12]: 14.4 µM; GI50 [4, 13]: 20.5 µM
6 | COC(C)(C)CCCC(C)(CCC/C(C)=C/CN1C(=O)c2cccc(O)c2Nc2c(O)cc(O)cc21)OC (stereo not shown) [Compound 84, 10-(7,11-dimethoxy-3,7,11-trimethyl-2-dodecenyl)-4,6,8-trihydroxy-5,10-dihydro-dibenzo[b,e][1,4]diazepin-11-one] |  |  | 3.49 | 16.4 | 21.5 | 23.5 | 16.2 | 
7 | CC(=O)Oc1cc(O)c2c(c1)N(CC=C(C)CCC=C(C)CCC=C(C)C)C(=O)c1cccc(OC(C)=O)c1N2 [Compound 11, 4,8-diacetoxy-10-farnesyl-6-hydroxy-5,10-dihydro-dibenzo[b,e][1,4]diazepin-11-one] |  |  |  |  |  |  |  | GI50 (SF268 (CNS) [1]; Homo sapiens, SF-268, 96 h): 5.79 µM; GI50 ([2]; 96 h): 5.35 µM; GI50 ([3]; Homo sapiens, HT-29, 96 h): 16 µM; GI50 ([4]; Homo sapiens, MDA-MB-231, 96 h): 7.72 µM; GI50 [5]: 8.72 µM
8 | COc1cccc2c1Nc1c(OC)cc(O)cc1N(CC=C(C)CCC=C(C)CCC=C(C)C)C2=O [Compound 7, 10-farnesyl-8-hydroxy-4,6-dimethoxy-5,10-dihydro-dibenzo[b,e][1,4]diazepin-11-one] | 14.6 | 16.1 |  |  |  |  |  | GI50 (SF268 (CNS) [1]; [11]): 18.5 µM; GI50 [3, 12]: 14.1 µM; GI50 [4, 13]: 17.4 µM
9 | CCCN1c2c(O)cccc2C(=O)N(C/C=C(\C)CC/C=C(\C)CCC=C(C)C)c2cc(O)cc(O)c21 [Compound 63, 10-farnesyl-4,6,8-trihydroxy-5-n-propyl-5,10-dihydro-dibenzo[b,e][1,4]diazepin-11-one] |  |  | 0.89 | 1.25 | 2.57 | 2.27 | 1.74 | anticancer activity compared with Compound 1 [10]: better anticancer activity than Compound 1
10 | CCOC(=O)CN1c2c(O)cccc2C(=O)N(C/C=C(\C)CC/C=C(\C)CCC=C(C)C)c2cc(O)cc(O)c21 [Compound 101, (10-Farnesyl-4,6,8-trihydroxy-5,10-dihydrodibenzo[b,e][1,4]diazepin-11-on-5-yl)acetic acid ethyl ester] |  |  | 3.27 | 8.73 | 18.2 | 3.67 | 8.47 | 
11 | COC(C)(CCC=C(C)C)CCC/C(C)=C/CN1C(=O)c2cccc(O)c2Nc2c(O)cc(O)cc21 (stereo not shown) [Compound 83] |  |  | 9.74 | 13.2 | 19.6 | 6.71 | 12.3 | 
12 | COc1cccc2c1Nc1c(O)cc(O)cc1N(C/C=C(\C)CC/C=C(\C)CCC=C(C)C)C2=O [Compound 4, 10-farnesyl-6,8-dihydroxy-4-methoxy-5,10-dihydro-dibenzo[b,e][1,4]diazepin-11-one] | 5.86 | 9.2 |  |  |  |  |  | GI50 (SF268 (CNS) [1]; [11]): 4.97 µM; GI50 [3, 12]: 14.7 µM; GI50 [4, 13]: 11.3 µM
13 | CC(=O)Oc1cc(OC(C)=O)c2c(c1)N(CC=C(C)CCC=C(C)CCC=C(C)C)C(=O)c1cccc(OC(C)=O)c1N2 [Compound 12, 4,6,8-triacetoxy-10-farnesyl-5,10-dihydro-dibenzo[b,e][1,4]diazepin-i 1-one] | 1.2 | 3.82 |  |  |  |  |  | GI50 (SF268 (CNS) [1]; method (a), 96 hours): 1.95 µM; GI50 ([3]; method (a), 96 hours): 9.33 µM; GI50 ([4]; method (a), 96 hours): 2.79 µM; anticancer activity compared with Compound 1 ([5]; method (a)): generally more active than Compound 1
14 | CCC(C)N1c2c(O)cccc2C(=O)N(C/C=C(\C)CC/C=C(\C)CCC=C(C)C)c2cc(O)cc(O)c21 (stereo not shown) [Compound 77, 10-Farnesyl-4,6,8-trihydroxy-5-sec-butyl-5,10-dihydro-dibenzo[b,e][1,4]diazepin-11-one] |  |  | 3.31 | 17.1 | 13.9 | 5.62 | 9.98 | 
15 | CCN1c2c(O)cccc2C(=O)N(C/C=C(\C)CC/C=C(\C)CCCC(C)(C)OC)c2cc(O)cc(O)c21 [Compound 85, 10-(11-methoxy-3,7,11-trimethyl-2,6-dodecadienyl)-4,6,8-trihydroxy-5-ethyl-5,10-dihydro-dibenzo[b,e][1,4]diazepin-11-one] |  |  | 1.73 | 1.08 | 1.89 | 2.19 | 1.72 | anticancer activity compared with Compound 1 [10]: better anticancer activity than Compound 1
16 | CC(C)=CCC/C(C)=C/CC/C(C)=C/CN1C(=O)c2cccc(OC(=O)c3ccccc3)c2Nc2c(OC(=O)c3ccccc3)cc(OC(=O)c3ccccc3)cc21 [Compound 105, 4,6,8-tribenzoyloxy-10-farnesyl-5,10-dihydro-dibenzo[b,e][1,4] diazepin-11-one] |  |  | 28.2 | > 30 | > 30 | > 30 | 28.2 | 
17 | CC(C)=CCCC1(C)OC1CC/C(C)=C/CN1C(=O)c2cccc(O)c2Nc2c(O)cc(O)cc21 (stereo not shown) [Compound 17, 10-(3,7,11-trimethyl-6,7-epoxydodeca-2,10-dienyl)-4,6,8-trihydroxy-5,10-dihydro-dibenzo[b,e][1,4]diazepin-11-one] |  |  | 13.4 | 18.7 | > 30 | > 30 | 16 | 
18 | CC(C)=CCCC(C)(O)CCC/C(C)=C/CN1C(=O)c2cccc(O)c2Nc2c(O)cc(O)cc21 (stereo not shown) [Compound 89, 10-(7-hydroxy-3,7,11-trimethyldodeca-2,10-dienyl)-4,6,8-trihydroxy-5,10-dihydro-dibenzo[b,e][1,4]diazepin-11-one] |  |  | 13.7 | 13.5 | > 30 | 25.3 | 17.5 | 
19 | CC(=O)NC(C)(CCC=C(C)C)CCC/C(C)=C/CN1C(=O)c2cccc(O)c2Nc2c(O)cc(O)cc21 (stereo not shown) [Compound 92, 10-(7-acetamido-3,7,11-trimethyldodeca-2,10-dienyl)-4,6,8-trihydroxy-5,10-dihydro-dibenzo[b,e][1,4]diazepin-11-one] |  |  | 13.5 | 16.6 | > 30 | 11.1 | 13.7 | 
20 | C/C(=C\CN1C(=O)c2cccc(O)c2N(C)c2c(O)cc(O)cc21)CCCC(C)CCCC(C)C (stereo not shown) [Compound 100, 10-(3,7,11-trimethyl-2-dodecenyl)-4,6,8-trihydroxy-5-methyl-5,10-dihydro-dibenzo[b,e][1,4]diazepin-11-one] |  |  | 0.23 | 0.65 | 0.69 | 0.37 | 0.49 | anticancer activity compared with Compound 1 [10]: better anticancer activity than Compound 1
